The nature of the data set: Accelerated stability of SAMe salts (ICH guidelines, HPLC). Particulars: 40-45° C. with 70-75% Relative Humidity. It is filed as physicochemical. How it is done:
Assessment of stability of the above SAMe salts has been done as per the ICH guidelines at 40-45° C. with 70-75% Relative Humidity and an improved HPLC method has been employed which resolves all the impurities formed on degrading SAMe (Table I). This method of HPLC analysis is the best method known so far to study stability of SAMe and has been validated as per the ICH guidelines. The details of the HPLC method followed and the accelerated stability report are as under:
Column=YMC-ODS-A, 4.6 mm×25 cm, C-18, 5 micron
Buffer=A mixture of 0.02 M citric acid & 0.01 M sodium dihydrogen orthophosphate
Mobile phase=using acetonitrile water with citric acid buffer
Detector=UV at 254 nm wavelength
Flow rate=1.5 ml per min.
Column temperature=25° C.
The percentage of SAMe after storage at the specified temperature was determined using the content of SAMe after storage and the content of SAMe before storage, i.e., initial content of SAMe in the corresponding salt using the following equation: [formula]

In the case of “SAMe disulfate catechol-3,5-disulfonate or its sodium salt [Salt II]”, the “SAMe Residual Ratio” value is, setting by setting: (accelerated storage period 30 days) 97.5%; (accelerated storage period 60 days) 95.2%; (accelerated storage period 90 days) 94.5%.

Values taken from patent US6649753B2, “Stable salts of S-adenosyl-L-methionine (SAMe) and the process for their preparation” (Orchid Chemicals & Pharmaceuticals Ltd., priority 2001, dated 2003).
